Test in all cases: inhibition of tumour cell growth, NCI panel, 48 h
Test [1] relates to A549 NSCLC.
The subject of test [2] is M14 melanoma.
For test [3], the system named is HCT-116 colon.
Test [4] concerns HCC-2998 colon.
Test [5] deals with UACC-257 melanoma.
The test system of test [6] is HOP-62 NSCLC.
In test [7] the test system is TK-10 renal.
In test [8] the test system is SNB-75 CNS.
The subject of test [9] is CAKI-1 renal.

Here are results for nine molecules from PubChem BioAssay (NCI).

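Protocol summary: plate cells (96-well), add compound at 5 concentrations, incubate 48 h, interpolate endpoints linearly. Abbreviation: GI50, concentration required for 50% inhibition of growth. TGI denotes the concentration required for complete inhibition of growth.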

As to `CC1(C)C(=S)C(C)(C)C1=S`, the TGI in [1], in test [2], in test [3], in [4], in [5] and in [6] was above 100 µM throughout. In addition, the TGI in test [7] and in test [8] was above 100 µM in each case.
In the case of `N#Cc1cccc(NC(=O)c2oc3ccccc3c2-c2cnn(-c3ccccc3)c2)c1`, the GI50 in test [1], in [2], in test [3], in [4], in [9] and in test [5] was above 500 µM in each case. Moreover, the figures for the GI50 in test [6], in test [7] and in test [8] were 320 µM, 317 µM and 82 µM, respectively. Moreover, the TGI in test [1], in test [2], in [3], in test [4], in [9] and in [5] was above 500 µM throughout. Further, the TGI was above 500 µM in test [6], above 500 µM in test [7] and 493 µM in test [8].
On to `CN(C)CCN=Cc1c2ccccc2c(=O)n2c1oc1ccccc12`, for which the GI50 in [1] was 4.13 µM; in test [2], 15.2 µM; in test [4] it was 12.2 µM; in test [9], 3.62 µM; in test [5] it was 14.2 µM; in test [6], 12.1 µM. In addition, the GI50 in test [7] is 3.44 µM; in [8], 7.55 µM. Further, the TGI in test [1] was found to be 20.7 µM; in test [2] it was 31.2 µM; in test [4], 24.6 µM; in test [9], 15.2 µM; in test [5], 30.5 µM; in test [6] it was 26.7 µM. For the same molecule, the TGI stood at 14 µM in test [7] and 22.2 µM in test [8].
With `C=C1C(=O)O[C@@H]2C[C@@H]1CC[C@@]1(C)O[C@@H]1CC[C@@]1(C)O[C@@H]1CC[C@@]2(C)O`, the GI50 in [1] was 73.8 µM; in [2], 21.4 µM; in test [3] it was 16.4 µM; in test [4] it was 4.21 µM; in test [9], 22.7 µM; in test [5], 43.6 µM. Moreover, the results for the GI50 in test [6] and in test [7] were 32.9 µM and 23.4 µM, respectively. The TGI in [1] was above 100 µM; in test [2], 42.4 µM; in test [3] it was 32 µM; in [4] it was 21.1 µM; in test [9], 72.8 µM; in test [5], above 100 µM. The values for the TGI in test [6] and in test [7] were above 100 µM and 67.6 µM, respectively.
On to `CC1(C)CC2C=C(C=O)C3(C=O)CC3(C)C2C1` (stereo not drawn), for which the TGI in [1] came out at 27.2 µM; in test [2], 5.24 µM; in test [3], 2.21 µM; in test [4] it was 18.2 µM; in test [9] it was 4.26 µM; in test [5], 7.11 µM. The figures for the TGI in [6], in [7] and in [8] were 8.86 µM, 5.62 µM and 7.56 µM, respectively.
Take `NC(=O)C(NC=O)c1ccccc1` (stereo not drawn): the TGI in [1], in test [2], in test [3], in [4], in test [9] and in [5] was above 100 µM throughout. For the same molecule, the TGI in test [6], in test [7] and in test [8] was above 100 µM in each case.
For `COc1cccc(C2NC(=S)NC(C)=C2C(=O)Nc2ccc(F)c(Cl)c2)c1` (stereo not drawn), the GI50 in [1] is 20.8 µM; in test [2] it was 25.2 µM; in test [3], 23.1 µM; in test [9], 48.9 µM; in [5] it was 10.4 µM; in test [6] it was above 50 µM. The GI50 in test [7] is 30.1 µM. The TGI in [1] is above 50 µM; in test [2] it was above 50 µM; in test [3], above 50 µM; in test [9] it was above 50 µM; in test [5] it was 30.7 µM; in test [6], above 50 µM. The molecule further gave a TGI in test [7] above 50 µM.
As to `Cc1ccccc1N=Nc1c(O)[nH]c2ccccc12`, the TGI in test [1], in test [2], in [3], in test [4], in test [9] and in test [5] was above 100 µM throughout. For the same molecule, the TGI in [6], in test [7] and in test [8] was above 100 µM in each case.
As for `COc1cc2cc[n+]3c4cc(OC)c(OC)cc4c(C)cc3c2cc1OC`, the TGI in test [1], in test [2], in test [3], in test [4], in [9] and in test [5] was above 100 µM in each case. In addition, the TGI in [6], in test [7] and in test [8] was above 100 µM in each case.
